Data taken from US7728028B2, “Substituted imidazoline compounds” (Gruenenthal GmbH, priority 2005, dated 2010).

The molecules below were run against T1, human μ-opiate receptor (Homo sapiens, UniProt P35372) (assay: Affinity for the human μ-opiate receptor ([3H]-naloxone displacement, SPA)). Conditions: Table 1, aldehydes; test substance 1 μmole/l; inhibition of specific [3H]-naloxone binding; CHO-K1 membranes; read-out: μ-Opioid receptor, % inhibition [1 μM].
T1 construct: purchased PerkinElmer Life Sciences, Zaventem, Belgium RB-HOM; host or cells: CHO-K1 cells (recombinant expression; membrane preparation)
Experimental: Investigations on the Efficacy of the Compounds According to the Invention Method for Determining the Affinity for the Human μ-Opiate Receptor
The receptor affinity for the human μ-opiate receptor is determined in a homogeneous batch in microtiter plates. For this purpose dilution series of the substances to be tested are incubated with a receptor membrane preparation (15-40 μg protein/250 μl incubation batch) of CHO-K1 cells, which express the human μ-opiate receptor (RB-HOM receptor membrane preparation from PerkinElmer Life Sciences, Zaventem, Belgium), in the presence of 1 nmole/l of the radioactive ligand [^3H]-naloxone (NET719, PerkinElmer Life Sciences company, Zaventem, Belgium) and 1 mg WGA-SPA beads (wheat germ agglutinin SPA beads from Amersham/Pharmacia, Freiburg, Germany) in a total volume of 250 μl for 90 minutes at room temperature. 50 mmole/l of Tris-HCl supplemented with 0.06% bovine serum albumin is used as incubation buffer. In order to determine the non-specific binding, 100 μmole/l of naloxone is additionally added. After the end of the 90 minutes' incubation time the microtiter plates are centrifuged for 20 minutes at 1000 g and the radioactivity is measured in a beta counter (Microbeta-Trilux, PerkinElmer Wallac, Freiburg, Germany). The percentage displacement of the radioactive ligand from its binding to the human μ-opiate receptor at a concentration of the test substances of 1 μmole/l is determined and is given as percentage inhibition of the specific binding.

T1 sequence (P35372 whole entry): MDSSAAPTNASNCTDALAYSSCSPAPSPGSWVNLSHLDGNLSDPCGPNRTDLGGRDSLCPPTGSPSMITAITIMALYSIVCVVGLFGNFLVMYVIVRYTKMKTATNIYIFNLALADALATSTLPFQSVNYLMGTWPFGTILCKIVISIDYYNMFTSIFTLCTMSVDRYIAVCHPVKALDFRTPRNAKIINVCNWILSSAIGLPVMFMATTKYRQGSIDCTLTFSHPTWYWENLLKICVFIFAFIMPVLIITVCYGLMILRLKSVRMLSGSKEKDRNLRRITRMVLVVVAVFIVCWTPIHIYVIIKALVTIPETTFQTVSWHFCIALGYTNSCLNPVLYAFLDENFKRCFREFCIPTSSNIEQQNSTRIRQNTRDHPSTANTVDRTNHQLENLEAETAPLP

`CN(C)C(c1cccs1)C1CCC(CC=O)CC1` (centres unmarked) [Example 10d, {4-[dimethylamino-thiophen-2-yl-methyl]-cyclohexyl}-acetaldehyde] gave an inhibition at 1 µM of 79%.

Same assay, conditions: Table 2, Examples 11-161; test substance 1 μmole/l; inhibition of specific [3H]-naloxone binding; CHO-K1 membranes; read-out: μ-Opioid receptor, % inhibition [1 μM]

First: CCCCC1(C(=O)OC)N=CN(C2CCCCC2)C1C1CCC(C(c2cccc(F)c2)N(C)C)CC1 (centres unmarked) [Example 13, 4-butyl-1-cyclohexyl-5-{4-[dimethylamino-(3-fluorophenyl)-methyl]-cyclohexyl}-4,5-dihydro-1H-imidazole-4-carboxylic acid methyl ester]
Second: COC(=O)C1(CCSC)N=CN(C2CCCCC2)C1CC1CCC(C(c2cccc(F)c2)N(C)C)CC1 (centres unmarked) [Example 103, 1-cyclohexyl-5-{4-[dimethylamino-(3-fluorophenyl)-methyl]-cyclohexylmethyl}-4-(2-methylsulfanyl-ethyl)-4,5-dihydro-1H-imidazole-4-carboxylic acid methyl ester]
The inhibition at 1 µM of the first is lower: 94% for the first, 99% for the second.

First: CCCN1C=NC(CSC)(C(=O)OC)C1CC1CCC(C(c2ccc(F)cc2)N(C)C)CC1 (centres unmarked) [Example 160, 5-{4-[dimethylamino-(4-fluorophenyl)-methyl]-cyclohexylmethyl}-4-methylsulfanylmethyl-1-propyl-4,5-dihydro-1H-imidazole-4-carboxylic acid methyl ester]
Second: CCCN1C=NC(CCC)(C(=O)OC)C1CC1CCC(C(c2cccc(F)c2)N(C)C)CC1 (centres unmarked) [Example 111, 5-{4-[dimethylamino-(3-fluorophenyl)-methyl]-cyclohexylmethyl}-1,4-dipropyl-4,5-dihydro-1H-imidazole-4-carboxylic acid methyl ester]
The inhibition at 1 µM of the first is lower: 74% for the first, 90% for the second.

First: COC(=O)C1(CCSC)N=CN(CCc2ccccc2)C1CC1CCC(C(c2cccc(F)c2)N(C)C)CC1 (centres unmarked) [Example 130, 5-{4-[dimethylamino-(3-fluorophenyl)-methyl]-cyclohexylmethyl}-4-(2-methylsulfanylethyl)-1-phenethyl-4,5-dihydro-1H-imidazole-4-carboxylic acid methyl ester]
Second: COC(=O)CCC1(C(=O)OC)N=CN(CCc2ccccc2)C1CC1CCC(C(c2cccc(F)c2)N(C)C)CC1 (centres unmarked) [Example 80, 5-{4-[dimethylamino-(3-fluorophenyl)-methyl]-cyclohexylmethyl}-4-(2-methoxycarbonylethyl)-1-phenethyl-4,5-dihydro-1H-imidazole-4-carboxylic acid methyl ester]
The inhibition at 1 µM of the first is higher: 97% for the first, 90% for the second.

Going from `CCCN1C=NC(CC(C)C)(C(=O)OC)C1C1CCC(C(c2cccc(F)c2)N(C)C)CC1` (centres unmarked) [Example 21, 5-{4-[dimethylamino-(3-fluorophenyl)-methyl]-cyclohexyl}-4-isobutyl-1-propyl-4,5-dihydro-1H-imidazole-4-carboxylic acid methyl ester] to `COC(=O)C1(CCSC)N=CN(C2CCCCC2)C1CC1CCC(C(c2ccc(F)cc2)N(C)C)CC1` (centres unmarked) [Example 106, 1-cyclohexyl-5-{4-[dimethylamino-(4-fluorophenyl)-methyl]-cyclohexylmethyl}-4-(2-methylsulfanyl-ethyl)-4,5-dihydro-1H-imidazole-4-carboxylic acid methyl ester], the inhibition at 1 µM rises from 83% to 92%.

Going from `COC(=O)C1(C)N=CN(CCc2ccccc2)C1CC1CCC(C(c2ccc(F)cc2)N(C)C)CC1` (centres unmarked) [Example 134, 5-{4-[dimethylamino-(4-fluorophenyl)-methyl]-cyclohexylmethyl}-4-methyl-1-phenethyl-4,5-dihydro-1H-imidazole-4-carboxylic acid methyl ester] to `COC(=O)CCC1(C(=O)OC)N=CN(C2CCCCC2)C1C1CCC(C(c2ccc(Cl)cc2)N(C)C)CC1` (centres unmarked) [Example 51, 5-{4-[(4-chlorophenyl)-dimethylaminomethyl]-cyclohexyl}-1-cyclohexyl-4-(2-methoxycarbonylethyl)-4,5-dihydro-1H-imidazole-4-carboxylic acid methyl ester], the inhibition at 1 µM rises from 92% to 96%.
